# According to patent US20250074911A1, “MACROCYCLIC BTK INHIBITORS” (Crossfire Oncology Holding B.V., priority 2021, published 2025):
# pIC50, pKd: −log10 of the molar value. Where “and” joins values, the source holds several entries; their conditions need not be identical. Identical values can stand only once.
# What was measured:
# [1] = molecular target: full-length wt-BTK enzyme (Homo sapiens (Human), UniProt Q06187); assay: Biochemical kinase assay wt-BTK (IMAP)
# Outline: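 Compound and enzyme (final 1.2 nM) were pre-incubated for 1 h at RT, after which the reaction was started with 4 μM ATP plus 50 nM fluorescein-MBP substrate peptide. After 2 h in the dark, the IMAP progressive binding reagent stopped the reaction, and phosphorylation was read by fluorescence polarization.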
# [2] = molecular target: full-length BTK C481S enzyme (Homo sapiens (Human), UniProt Q06187, C481S); assay: Biochemical kinase assay BTK C481S (IMAP)
# Outline: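 IC50 values come from IMAP fluorescence polarization after quenching with progressive binding solution. The reaction ran 2 h at room temperature in the dark with 1.2 nM full-length C481S enzyme, 7 μM ATP and 50 nM fluorescein-labelled MBP-derived peptide, following a 1 h dark pre-incubation of compound with enzyme.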
# wt-BTK = wt-BTK (Homo sapiens (Human), UniProt Q06187); assay: Binding kinetics measurements (Surface Plasmon Resonance) on wt-BTK; settings: for pKd: binding affinity by Surface Plasmon Resonance (SPR); for Tau (h) wt-BTK (Act): target residence time, SPR
# Experimental: (§1) Binding kinetics measurements on wt-BTK, BTK […], BTK […], BTK […] and BTK […] (Surface Plasmon Resonance) Streptavidin-coated chips (Cat. No. BR100531), disposables and maintenance kits for Biacore were purchased from Cytiva (Eindhoven, The Netherlands). […] Remaining streptavidin was blocked with biocytin. Immobilization was performed at 4° C. Subsequent assay steps were conducted at 22° C. After changing buffer to Biacore buffer with 1% (v/v) dimethylsulfoxide (DMSO), a pre-run was performed for a period of at least 30 min at a flow rate of 30 μl/min to obtain a stable surface. The kinetic constants of the compounds were determined with single cycle kinetics with five consecutive injections with an increasing compound concentration with ranges of 3.16-316 nM. […] To circumvent problems of mass transport limitation, a flow rate of 30 μl/min was used. A blank run with the same conditions was performed before the compound was injected. The SPR sensorgrams were analyzed with Biacore Evaluation Software by using a method of double referencing. First the reference channel was subtracted from the channel containing immobilized protein. Subsequently, the reference curve obtained with buffer injections was subtracted. […] Compounds that bound according to an induced fit model were fitted with a two-state reaction model. The kinetic constants (ka, […], KD) of duplicates were geometrically averaged. […] Target residence for an induced fit model was calculated as described (Tummino and Copeland, 2008).
# BTK C481S = BTK C481S (Homo sapiens (Human), UniProt Q06187, C481S); assay: Binding kinetics measurements (Surface Plasmon Resonance) on BTK C481S; settings: for pKd: binding affinity by Surface Plasmon Resonance (SPR); for Tau (h) BTK C418S (Act): target residence time for BTK C481S, SPR
# Experimental: as §1
# [3] = system: wt-REC-1 mantle cell lymphoma cells; assay: Cell proliferation assay wt-REC-1 (ATPlite, 72 hours); type: cell-based; settings: 72 h; read-out: IC50 wt-REC-1
# Outline: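 Luminescent viability read over 72 h, start-of-incubation signal recorded separately to separate growth from cell death. Percentage growth referenced to compound-free 0.3% DMSO wells; IC50 from 4-parameter logistic fit.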
# REC-1 T474I cell lines = assay: Cell proliferation assay REC-1 BTK T474I knock-in cells (ATPlite, 72 hours); type: cell-based; settings: Homo sapiens, Rec1; 72 hours; read-out: IC50 REC-1 T474I
# Outline: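 REC-1 cells carrying CRISPR knock-in mutant BTK, single-cell cloned and sequence-confirmed, were exposed to compound for 72 h and read by ATPlite luminescence. Percentage growth was calculated against the signal at the start of incubation and against untreated 0.3% DMSO wells as maximum growth.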
# BTK T474I = BTK T474I (Homo sapiens (Human), UniProt Q06187, T474I); assay: Binding kinetics measurements (Surface Plasmon Resonance) on BTK T474I; settings: for pKd: binding affinity by Surface Plasmon Resonance (SPR); for Tau (h) BTK T474I (Act): target residence time, SPR
# Experimental: as §1
# [4] = system: wt-TMD8 diffuse large B-cell lymphoma cells; assay: Cell proliferation assay wt-TMD8 (ATPlite, 120 hours); type: cell-based; settings: B-cell; wt-TMD8 cells, 120 hours, ATPlite; read-out: IC50 wt-TMD8
# Outline: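 Readout is percentage growth from ATPlite 1Step luminescence after 5 days (120 h) compound treatment of wt-TMD8 lymphoma cells (1600/well, RPMI-1640 + 10% FBS). Time-zero signal separates growth inhibition from cell kill; 0.3% DMSO wells without compound define maximal growth.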
# Sequence of full-length BTK C481S enzyme (Q06187 whole entry C481S): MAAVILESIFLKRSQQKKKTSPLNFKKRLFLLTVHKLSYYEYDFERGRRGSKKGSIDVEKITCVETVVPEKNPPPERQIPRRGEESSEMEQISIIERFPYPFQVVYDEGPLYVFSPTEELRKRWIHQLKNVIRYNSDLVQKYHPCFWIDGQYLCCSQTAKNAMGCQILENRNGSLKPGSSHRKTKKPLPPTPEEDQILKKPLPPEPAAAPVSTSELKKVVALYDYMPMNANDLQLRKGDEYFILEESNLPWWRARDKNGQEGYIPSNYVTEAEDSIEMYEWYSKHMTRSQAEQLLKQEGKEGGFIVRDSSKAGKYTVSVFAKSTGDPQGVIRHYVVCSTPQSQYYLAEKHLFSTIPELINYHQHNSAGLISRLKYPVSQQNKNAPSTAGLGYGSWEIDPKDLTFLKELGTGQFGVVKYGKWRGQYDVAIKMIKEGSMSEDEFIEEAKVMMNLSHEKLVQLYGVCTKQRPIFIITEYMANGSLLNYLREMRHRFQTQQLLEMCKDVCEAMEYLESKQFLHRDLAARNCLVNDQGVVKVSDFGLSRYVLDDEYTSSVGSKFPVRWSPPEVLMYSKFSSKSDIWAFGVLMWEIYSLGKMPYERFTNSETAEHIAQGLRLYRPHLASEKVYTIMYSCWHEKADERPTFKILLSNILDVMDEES
# Sequence of BTK C481S (Q06187 whole entry C481S): as above
# Sequence of BTK T474I (Q06187 whole entry T474I): as the sequence (Q06187 whole entry C481S) above, with T474I, S481C counted along it
# Sequence of full-length wt-BTK enzyme (Q06187 whole entry): as the sequence (Q06187 whole entry C481S) above, with S481C counted along it
# Sequence of wt-BTK (Q06187 whole entry): as the sequence (Q06187 whole entry C481S) above, with S481C counted along it
Compound,pIC50 [1],pIC50 [2],pKd (wt-BTK),pKd (BTK C481S),Tau (h) BTK C418S (Act) (BTK C481S),pIC50 [3],pIC50 (REC-1 T474I cell lines),pKd (BTK T474I),pIC50 [4],Tau (h) wt-BTK (Act) (wt-BTK),Tau (h) BTK T474I (Act) (BTK T474I)
Nc1ncc2c3c1c(-c1ccc(C(=O)Nc4cc(C(F)(F)F)ccn4)cc1)nn3[C@@H]1CCC[C@H](C1)NC(=O)CCCCCC2 [Example 114],> 8.30,> 8.30,> 8.30,> 8.30,1.85 h,6.00 to 7.00,5.00 to 6.30,7.30 to 8.00 and > 8.30,> 7.00,,
Nc1ncc2n3c(nc(-c4ccc(C(=O)Nc5cc(C(F)(F)F)ccn5)cc4)c13)[C@@H]1CC[C@H](C1)NC(=O)CCOC/C=C/2 [Example 198],> 8.30,> 8.30,,,18.16 h,> 7.00,,,> 7.00,4.28 h,1.44 h
N#Cc1ccnc(NC(=O)c2ccc(-c3nc4n5c(cnc(N)c35)/C=C/COCCC(=O)N[C@@H]3CC[C@@H]4C3)cc2)c1 [Example 199],> 8.30,> 8.30,,,1.28 h,> 7.00,5.00 to 6.30,,> 7.00,1.69 h,0.54 h
N#Cc1ccnc(NC(=O)c2ccc(-c3nc4n5c(cnc(N)c35)/C=C/COCCC(=O)N[C@@H]3CCC[C@@H]4C3)cc2)c1 [Example 200],> 8.30,> 8.30,,,2.23 h,> 7.00,5.00 to 6.30,,> 7.00,2.12 h,0.77 h
Nc1ncc2n3c(nc(-c4ccc(C(=O)Nc5cc(C(F)(F)F)ccn5)cc4)c13)[C@@H]1CC[C@H](C1)NC(=O)CCOCC/C=C/2 [Example 202],> 8.30,> 8.30,,,3.15 h,> 7.00,> 7.00,,> 7.00,2.20 h,2.16 h
N#Cc1ccnc(NC(=O)c2ccc(-c3nc4n5c(cnc(N)c35)/C=C/CCOCCC(=O)N[C@@H]3CCC[C@@H]4C3)cc2)c1 [Example 205],> 8.30,> 8.30,,,,> 7.00,> 7.00,,> 7.00,1.80 h,1.15 h
C[C@@H]1CC(=O)N[C@@H]2CC[C@H](C2)c2nc(-c3ccc(C(=O)Nc4cc(C(F)(F)F)ccn4)cc3)c3c(N)ncc(n23)/C=C/CCN1 [Example 207],> 8.30,> 8.30,> 8.30,> 8.30,8.44 h,> 7.00,5.00 to 6.30,> 8.70,> 7.00,2.55 h,
COc1ccc(F)cc1C(=O)NCc1ccc(-c2nc3n4c(cnc(N)c24)/C=C/CCOCCC(=O)N[C@@H]2CCC[C@@H]3C2)cc1 [Example 210],> 8.30,> 8.30,> 8.30,,,> 7.00,> 7.00,> 8.70,> 7.00,1.22 h,0.68 h
COc1ccc(F)cc1C(=O)NCc1ccc(-c2nc3n4c(cnc(N)c24)/C=C/COCCC(=O)N[C@@H]2CCC[C@@H]3C2)cc1 [Example 211],> 8.30,> 8.30,> 8.30,,,> 7.00,5.00 to 6.30,7.30 to 8.00 and > 8.30,> 7.00,,
COc1ccc(F)cc1C(=O)NCc1ccc(-c2nc3n4c(cnc(N)c24)/C=C/CCOCCC(=O)N[C@@H]2CC[C@@H]3C2)cc1 [Example 213],> 8.30,> 8.30,> 8.30,,,> 7.00,> 7.00,> 8.70,> 7.00,2.29 h,0.93 h
Cc1ccnc(NC(=O)c2ccc(-c3nc4n5c(cnc(N)c35)/C=C/CCOCCC(=O)N[C@@H]3CC[C@@H]4C3)cc2)c1 [Example 215],> 8.30,> 8.30,,,,> 7.00,> 7.00,,> 7.00,9.76 h,1.18 h
Cn1nc(NC(=O)c2ccc(-c3nc4n5c(cnc(N)c35)/C=C/CCOCCC(=O)N[C@@H]3CC[C@@H]4C3)cc2)cc1C(F)(F)F [Example 216],> 8.30,> 8.30,,,,> 7.00,> 7.00,,> 7.00,4.79 h,1.28 h
COc1ccnc(NC(=O)c2ccc(-c3nc4n5c(cnc(N)c35)/C=C/CCOCCC(=O)N[C@@H]3CC[C@@H]4C3)cc2)c1 [Example 217],> 8.30,> 8.30,,,,> 7.00,> 7.00,,> 7.00,2.78 h,0.70 h
Nc1ncc2n3c(nc(-c4ccc(C(=O)Nc5cc(C(F)F)ccn5)cc4)c13)[C@@H]1CC[C@H](C1)NC(=O)CCOCC/C=C/2 [Example 222],> 8.30,> 8.30,,,,> 7.00,6.30 to 7.00,,> 7.00,5.31 h,0.60 h
Nc1ncc2n3c(nc(-c4ccc(C(=O)Nc5cc(OC(F)F)ccn5)cc4)c13)[C@@H]1CC[C@H](C1)NC(=O)CCOCC/C=C/2 [Example 224],> 8.30,> 8.30,,,,> 7.00,> 7.00,,> 7.00,3.69 h,1.60 h
